From PMC6005348, “Betahistine Treatment in a Cat Model of Vestibular Pathology: Pharmacokinetic and Pharmacodynamic Approaches” (Frontiers in Neurology, 2018)

Experiments:
cochlear blood flow = test system: cochlear blood flow; set-up: method as in PMID 25014609; conditions: guinea pig model ref 29; cited from earlier work
[1] = Plasma pharmacokinetics of betahistine and 2-PAA after oral dosing in UVN cats (LC-MS/MS, non-compartmental analysis); type: in vivo, cat; conditions: days 1 and 21
Protocol: The experiments were performed on nine adult male UVN cats randomly allocated into three groups of cats. Three groups of three adult male cats received 0.2 mg/kg betahistine (N = 3: cats 1–3), 2 mg/kg betahistine (N = 3: cats 4–6), or 0.2 mg/kg betahistine plus 1 mg/kg selegiline (N = 3: cats 7–9). […] The samples were frozen at −80°C until analysis. Pharmacokinetic parameters of betahistine and its major metabolite 2-PAA were calculated by applying non-compartmental analysis.
Betahistine and its internal standard, betahistine-d3, were extracted by liquid/liquid extraction from plasma under alkaline conditions toward 1-butanol/isooctane, followed by a second liquid/liquid extraction step of acidic 1-butanol/isooctane toward water. Betahistine concentration in plasma was analyzed using a validated LC-MS/MS method. In brief, an API 4000 (Applied Biosystems) mass spectrometer coupled with a Symbiosis HPLC system (Sparks, Emmen, The Netherlands) was employed to analyze betahistine. Extracts (100 μl) were injected into a XTerra RP18 150 ^* 4.6 mm, 3.5 μm column (Waters, Etten-Leur, The Netherlands) and separated at 30°C under isocratic conditions using an aqueous metanol solution containing 0.5 mM ammonium formate as mobile phase. Betahistine was quantified by a tandem mass spectrometer in positive MRM. Parent daughter transition was followed for betahistine (m/z 137 > 94). Betahistine-d3 dihydrochloride was used as internal standard. Pharmacokinetic parameters of betahistine were calculated by applying non-compartmental analysis using the validated PK software WinNonLin, version 5.23 (Pharsight Corporation, Mountain View, CA, USA).
Cmax and tmax were derived directly from the plasma concentration-time curves. Linear trapezoidal rule was used to calculate AUC0-t during the part of the curve with increasing plasma concentrations. For the descending part of the curve, the log-linear trapezoidal rule was used. Calculation of the elimination half-life (t1/2) was evaluated as ln 2/kel, with kel as the slope of the terminal phase of the plasma concentration-time curve.

For `OCCc1ccccn1` [hydroxyethylpyridine], the “Increase in cochlear blood flow” value (cochlear blood flow) is listed as “observed”.

In the case of `NCCc1ccccn1` [aminoethylpyridine], the “Increase in cochlear blood flow” value (cochlear blood flow) is given as “observed”.

For `O=C(O)Cc1ccccn1` [2-PAA, 2-pyridylacetic acid], the “Effect of selegiline co-administration on 2-PAA Cmax-values” [1] is listed as “strongly reduced” and the “Increase in cochlear blood flow” value (cochlear blood flow) is listed as “not”.
